This is an account of results in publication PMC12123727 (BMC Cancer, 2025).

Molecules are shown by their SMILES. Where two headings read alike, the source gives them in different places.

Experiment [1] has as its system r/r B cell NHL. Nature of the experiment: Phase 1 efficacy. The experiment is classed as in vivo, human.
For experiment [2], the system named is r/r B cell NHL or chronic lymphocytic leukemia. The following applies: cited from earlier work.
The subject of experiment [3] is advanced solid tumor. To be noted: combined with pazopanib, follow-up, cited from earlier work.

With `CN(C)Cc1c(C(=O)NCCOc2ccc(C(=O)NO)cc2)oc2ccccc12` [abexinostat, Abexinostat], in experiment [1] (FAS), the “12-month PFS rate” value is given as 30.0%, the “30-month PFS rate” value is 20.0%, the “39-month OS rate” value was found to be 64.8% and the “duration of response (DoR)” value was “not reached”. For the same compound, in experiment [1] (FAS), the “median overall survival (OS)” value is reported as “not reached” and the “median progression-free survival (PFS)” value turned out to be 5.01 months. Besides, in experiment [1] (FAS, 4/10, all doses), the “objective response rate (ORR)” value is reported as 40.0%. Further, the “disease control rate (DCR)” value in experiment [1] (FAS, 6/10) came out at 60%. In addition, the “PFS of the patient who achieved CR” value in experiment [1] (Patient 2, DLBCL, 40 mg BID, still on treatment) is recorded as “over 30 months”. The patients still alive entry in experiment [1] (at data cutoff November 30, 2023) is recorded as “Seven patients”. Moreover, in experiment [1] (patients with FL), the “median DoR” value amounted to 7.82 months and the “median PFS” value is recorded as 8.38 months. This compound yielded an ORR in experiment [1] (patients with FL, 3/6) of 50%. The DCR in experiment [1] (patients with FL, 5/6) turned out to be 83.3%. In experiment [1] (r/r DLBCL patients, 1/4), this compound displayed a DCR of 25% and an ORR of 25%. In addition, in experiment [2] (PCYC-0401, DLBCL), the “median OS” value is reported as 10.2 months and the “median PFS” value is 2.8 months. In experiment [2] (PCYC-0401, FL), the “median OS” value is “not reached” and the “median PFS” value is 10.2 months. In addition, in experiment [2] (PCYC-0401, patients with DLBCL, 5/16), the ORR is recorded as 31%. Also, in experiment [2] (PCYC-0401, patients with FL, 9/16), the ORR was 56%. In experiment [3] (range 39.8–133 +), the “median duration of treatment in exceptional responders” value is listed as 44.1 months. Besides, in experiment [3], the “time on treatment of one patient with RCC” value was more than 11 years.
